Experimental data reported in the NIST ThermoML archive (doi:10.1021/je7000254).

Experiment: xn = mol fraction of the nth substance listed
Conditions: Fluid (supercritical or subcritical phases), Taylor-Aris chromatographic method, x1 = 0

Structure (SMILES) | binary diffusion coefficient (313.16 K, 15000 kPa) | binary diffusion coefficient (313.16 K, 20000 kPa) | binary diffusion coefficient (313.16 K, 25000 kPa) | binary diffusion coefficient (313.16 K, 30000 kPa) | binary diffusion coefficient (313.16 K, 35000 kPa) | binary diffusion coefficient (323.16 K, 15000 kPa) | binary diffusion coefficient (323.16 K, 20000 kPa) | binary diffusion coefficient (323.16 K, 25000 kPa) | binary diffusion coefficient (323.16 K, 30000 kPa) | binary diffusion coefficient (323.16 K, 35000 kPa) | binary diffusion coefficient (333.16 K, 15000 kPa) | binary diffusion coefficient (333.16 K, 20000 kPa) | binary diffusion coefficient (333.16 K, 25000 kPa) | binary diffusion coefficient (333.16 K, 30000 kPa) | binary diffusion coefficient (333.16 K, 35000 kPa)
Nc1ccccc1 [aniline] + O=C=O | 1.02e-08 m2/s | 9.75e-09 m2/s | 9.06e-09 m2/s | 8.43e-09 m2/s | 7.76e-09 m2/s | 1.18e-08 m2/s | 1.08e-08 m2/s | 9.66e-09 m2/s | 9.1e-09 m2/s | 8.7e-09 m2/s | 1.33e-08 m2/s | 1.19e-08 m2/s | 1.1e-08 m2/s | 1.02e-08 m2/s | 9.47e-09 m2/s
Cc1cc(C)cc(C)c1 [1,3,5-trimethylbenzene] + O=C=O | 1.04e-08 m2/s | 9.15e-09 m2/s | 8.21e-09 m2/s | 7.78e-09 m2/s | 7.46e-09 m2/s | 1.19e-08 m2/s | 1.11e-08 m2/s | 9.33e-09 m2/s | 9.23e-09 m2/s | 8.6e-09 m2/s | 1.42e-08 m2/s | 1.23e-08 m2/s | 1.15e-08 m2/s | 1.04e-08 m2/s | 9.89e-09 m2/s
C=Cc1ccccc1 [styrene] + O=C=O | 1.19e-08 m2/s | 1.08e-08 m2/s | 9.58e-09 m2/s | 8.74e-09 m2/s | 8.27e-09 m2/s | 1.32e-08 m2/s | 1.12e-08 m2/s | 1.06e-08 m2/s | 9.2e-09 m2/s | 8.77e-09 m2/s | 1.55e-08 m2/s | 1.41e-08 m2/s | 1.22e-08 m2/s | 1.09e-08 m2/s | 1.02e-08 m2/s
